Patent US12606528B2, “Methods and materials for inhibiting NF-kB activity” (University of Pittsburgh - Of the Commonwealth System of …, priority 2019, dated 2026)
Like-named read-outs stand apart in the source and are kept apart here.

What was measured:
[1] = system: TNF release; assay: TNF assay: TNF release from LPS-stimulated human PBMCs (TNF ELISA); assay type: cell-based; conditions: PBMC, read-out: IC50 (TNF assay)
Summary of the method: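 TNF ELISA on supernatants read-out; cells were 10k human PBMCs/well given LPS at 10 ng/mL for 18 h after a 2 h compound pre-incubation across a concentration series, with IC50 derived for suppression of TNF secretion.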

[2] = system: NF-κB; assay: NF-κB assay: THP1-NF-κB-LUC cells, LPS-stimulated secreted luciferase; assay type: cell-based; conditions: THP1-NF-κB-LUC cells, read-out: IC50 (NF-κB assay)
Summary of the method: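 THP1-NF-κB-LUC cells (25k/well) were pretreated with compounds for 2 h, then stimulated with LPS (10 ng/mL) for 18 h. Secreted luciferase was measured and normalized to vehicle, and IC50 was fitted from the concentration series.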

[3] = human PBMCs, compounds 2 hours before LPS (10 ng/ml) for 18 hours, supernatant TNF ELISA
[4] = compounds 2 hours before LPS (10 ng/mL) for 18 hours, secreted luciferase
[5] = LPS-stimulated human PBMCs, TNF ELISA

SMILES | IC50 [1, 3] [µM] | IC50 [2, 4] [µM] | IC50 [1, 5] [µM] | IC50 ([2]; LPS-stimulated) [µM]
CCC1Oc2cc(S(=O)(=O)NCCc3ccc(OC(F)(F)F)cc3)c(Br)cc2NC1=O (stereo not shown) [BC19373] | > 10 | > 10 | – | –
CCC1Oc2c(cc(Br)cc2S(=O)(=O)NCc2ccc(F)cc2F)NC1=O (stereo not shown) [BC19374] | 1 to 10 | < 0.1 | – | –
CCC1Oc2c(cc(Br)cc2S(=O)(=O)NCc2ccc(OC(F)(F)F)cc2)NC1=O (stereo not shown) [BC19375] | > 10 | < 0.1 | – | –
CCC1Oc2c(cc(Br)cc2S(=O)(=O)NCCc2ccc(OC(F)(F)F)cc2)NC1=O (stereo not shown) [BC19376] | > 10 | 1 to 10 | – | –
CCC1Oc2c(cc(Br)cc2S(=O)(=O)NCc2ccc(C(F)(F)F)cc2)NC1=O (stereo not shown) [BC19377] | > 10 | < 0.1 | – | –
CCC1Oc2c(cc(Br)cc2S(=O)(=O)NC2CCC(O)CC2)NC1=O (stereo not shown) [BC19378] | > 10 | > 10 | – | –
CCC1Oc2c(cc(Br)cc2S(=O)(=O)NC2CCC(C(C)(C)C)CC2)NC1=O (stereo not shown) [BC19379] | > 10 | > 10 | – | –
CC(C)(C)C1CCC(NS(=O)(=O)c2cc(Br)cc3c2OCC(=O)N3)CC1 (stereo not shown) [BC19380] | > 10 | > 10 | – | –
O=C1COc2c(cc(Br)cc2S(=O)(=O)NC2CCC(O)CC2)N1 (stereo not shown) [BC19381] | > 10 | > 10 | – | –
O=C1COc2c(cc(Br)cc2S(=O)(=O)NCc2ccc(C(F)(F)F)cc2)N1 [BC19382] | > 10 | > 10 | – | –
O=C1COc2c(cc(Br)cc2S(=O)(=O)NCCc2ccc(OC(F)(F)F)cc2)N1 [BC19383] | > 10 | > 10 | – | –
O=C1COc2c(cc(Br)cc2S(=O)(=O)Nc2ccc(C(F)(F)F)cc2Cl)N1 [BC19384] | > 10 | < 0.1 | – | –
O=C1COc2c(cc(Br)cc2S(=O)(=O)NCc2ccc(OC(F)(F)F)cc2)N1 [BC19385] | > 10 | > 10 | – | –
O=C1COc2c(cc(Br)cc2S(=O)(=O)NCc2ccc(F)cc2F)N1 [BC19386] | > 10 | > 10 | – | –
O=C1COc2cc(S(=O)(=O)NCCc3ccc(OC(F)(F)F)cc3)c(Br)cc2N1 [BC19387] | > 10 | > 10 | – | –
CC(C)(C)C1CCC(NS(=O)(=O)c2cc3c(cc2Br)NC(=O)CO3)CC1 (stereo not shown) [BC19388] | > 10 | > 10 | – | –
O=C1COc2cc(S(=O)(=O)NC3CCC(O)CC3)c(Br)cc2N1 (stereo not shown) [BC19389] | > 10 | > 10 | – | –
O=C1COc2cc(S(=O)(=O)Nc3ccc(C(F)(F)F)cc3Cl)c(Br)cc2N1 [BC19390] | > 10 | 1 to 10 | – | –
O=C1COc2cc(S(=O)(=O)NCc3ccc(C(F)(F)F)cc3)c(Br)cc2N1 [BC19391] | > 10 | > 10 | – | –

SMILES | IC50 [1, 3] [µM] | IC50 [2, 4] [µM] | IC50 [1, 5] [µM] | IC50 ([2]; LPS-stimulated) [µM]
O=C1COc2cc(S(=O)(=O)NCc3ccc(OC(F)(F)F)cc3)c(Br)cc2N1 [BC19392] | > 10 | > 10 | – | –
O=C1COc2cc(S(=O)(=O)NCc3ccc(F)cc3F)c(Br)cc2N1 [BC19393] | > 10 | > 10 | – | –
CC1Oc2c(cc(Cl)cc2S(=O)(=O)Nc2ccc(OC(F)(F)F)cc2)NC1=O (stereo not shown) [BC19394] | > 10 | < 0.1 | – | –
CN1CCN(C(=O)c2ccc3nc(-c4ccc(F)cc4)c(S(=O)(=O)c4cccc(F)c4)nc3c2)CC1 [BC19395] | – | – | < 0.1 | 0.1 to 1
OCCn1cc(-c2ccc3nc(-c4ccc(F)cc4)c(-c4ccc(F)cc4)nc3c2)nn1 [BC19396] | – | – | > 10 | < 0.1
C#CC(=O)Nc1ccc2nc(-c3ccc(F)cc3)c(-c3ccc(F)cc3)nc2c1 [BC19397] | – | – | 0.1 to 1 | < 0.1
CN1CCN(C(=O)c2ccc3nc(-c4ccc(F)cc4)c(-c4ccc(Cl)cc4Cl)nc3c2)CC1 [BC19398] | – | – | > 10 | 0.1 to 1
CN1CCN(C(=O)c2ccc3nc(-c4ccc(F)cc4)c(-c4ccc(OC(F)(F)F)cc4)nc3c2)CC1 [BC19399] | – | – | > 10 | > 10
CN1CCN(C(=O)c2cccc3nc(-c4ccc(F)cc4)c(-c4ccc(F)cc4)nc23)CC1 [BC19400] | – | – | > 10 | > 10
Cn1cc(-c2cnc3nc(-c4ccc(F)cc4)c(-c4ccc(F)cc4)nc3c2)nn1 [BC19401] | – | – | > 10 | < 0.1
CCCn1cc(-c2cnc3nc(-c4ccc(F)cc4)c(-c4ccc(F)cc4)nc3c2)nn1 [BC19402] | – | – | > 10 | < 0.1
Fc1ccc(-c2nc3cccnc3nc2-c2ccc(F)cc2)cc1 [BC19403] | – | – | > 10 | 0.1 to 1
OCCn1ncc(-c2ccc3nc(-c4ccc(F)cc4)c(-c4ccc(F)cc4)nc3c2)n1 [BC19404] | – | – | > 10 | 1 to 10
CN1CCN(C(=O)c2ccc3nc(-c4ccc(F)cc4F)c(-c4ccccc4)nc3c2)CC1 [BC19405] | – | – | > 10 | 0.1 to 1
C#CCNC(=O)c1ccc2nc(-c3ccc(F)cc3F)c(-c3ccccc3)nc2c1 [BC19406] | – | – | > 10 | 0.1 to 1
O=C(O)c1cnc2nc(-c3ccc(F)cc3)c(-c3ccc(F)cc3)nc2c1 [BC19407] | – | – | > 10 | 0.1 to 1
CN1CCN(C(=O)c2cnc3nc(-c4ccc(F)cc4)c(-c4ccc(F)cc4)nc3c2)CC1 [BC19408] | – | – | > 10 | 0.1 to 1
O=c1c(S(=O)(=O)c2cccc(F)c2)c(O)[nH]c2ncccc12 [BC19409] | > 10 | > 10 | – | –
COc1cccc(-c2nc(S(=O)(=O)c3ccc(Cl)cc3)c(S(C)(=O)=O)[nH]2)c1 [BC19410] | – | – | > 10 | 0.1 to 1

SMILES | IC50 [1, 3] [µM] | IC50 [2, 4] [µM] | IC50 [1, 5] [µM] | IC50 ([2]; LPS-stimulated) [µM]
CC(C)S(=O)(=O)c1oc(-c2cccc(F)c2)nc1S(=O)(=O)c1ccc(Cl)cc1 [BC19411] | – | – | < 0.1 | < 0.1
O=S(=O)(c1ccc(Cl)cc1)c1nc(-c2cccc(F)c2)oc1S(=O)(=O)C1CCCCC1 [BC19412] | – | – | 0.1 to 1 | 0.1 to 1
C[S+]([O-])c1sc(-c2ccc(F)cc2)nc1S(=O)(=O)c1ccc(Cl)cc1 (stereo not shown) [BC19413] | – | – | 1 to 10 | > 10
CCC[S+]([O-])c1sc(-c2ccc(F)cc2)nc1S(=O)(=O)c1ccc(Cl)cc1 (stereo not shown) [BC19414] | – | – | > 10 | > 10
CC(C)[S+]([O-])c1sc(-c2ccc(F)cc2)nc1S(=O)(=O)c1ccc(Cl)cc1 (stereo not shown) [BC19415] | – | – | 1 to 10 | > 10
O=S(=O)(c1ccc(Cl)cc1)c1nc(-c2ccc(F)cc2)sc1[S+]([O-])CC1CC1 (stereo not shown) [BC19416] | – | – | > 10 | > 10
CCC[S+]([O-])c1oc(-c2ccc(Cl)cc2)nc1S(=O)(=O)c1ccc(Cl)cc1 (stereo not shown) [BC19417] | – | – | 1 to 10 | 0.1 to 1
CCCS(=O)(=O)c1oc(-c2ccc(Cl)cc2)nc1S(=O)(=O)c1ccc(Cl)cc1 [BC19418] | – | – | 1 to 10 | 1 to 10
CC(C)CS(=O)(=O)c1oc(-c2ccc(Cl)cc2)nc1S(=O)(=O)c1ccc(Cl)cc1 [BC19419] | – | – | 0.1 to 1 | 1 to 10
COCC[S+]([O-])c1[nH]c(-c2ccccc2)nc1S(=O)(=O)c1ccc(Cl)cc1 (stereo not shown) [BC19420] | – | – | > 10 | > 10
CCS(=O)(=O)c1cc2c(c(S(=O)(=O)Nc3ccc(F)c(F)c3)c1)OCC(=O)N2 [BC19421] | > 10 | < 0.1 | – | –
CS(=O)(=O)c1cc2c(c(S(=O)(=O)Nc3ccc(OC(F)(F)F)cc3)c1)OCC(=O)N2 [BC19422] | > 10 | < 0.1 | – | –
Cc1ccc(NS(=O)(=O)c2cc(S(C)(=O)=O)cc3c2OCC(=O)N3)cc1F [BC19423] | > 10 | < 0.1 | – | –
CC(C)c1ccc(NS(=O)(=O)c2cc(S(C)(=O)=O)cc3c2OCC(=O)N3)cc1 [BC19424] | > 10 | < 0.1 | – | –
CS(=O)(=O)c1cc2c(c(S(=O)(=O)Nc3ccc(F)cc3F)c1)OCC(=O)N2 [BC19425] | > 10 | < 0.1 | – | –
CS(=O)(=O)c1cc2c(c(S(=O)(=O)Nc3cccc(F)c3)c1)OCC(=O)N2 [BC19426] | > 10 | < 0.1 | – | –
CS(=O)(=O)c1cc2c(c(S(=O)(=O)Nc3cccc(Cl)c3)c1)OCC(=O)N2 [BC19427] | > 10 | < 0.1 | – | –
CS(=O)(=O)c1cc2c(c(S(=O)(=O)Nc3ccc(F)cc3Cl)c1)OCC(=O)N2 [BC19428] | > 10 | 0.1 to 1 | – | –
